Earlier results, collected in US20170020837A1, “FUMARATE COMPOUNDS, PHARMACEUTICAL COMPOSITIONS THEREOF, AND METHODS OF USE” (priority 2015, published 2017).

aqueous solubility: poor
Compound: COC(=O)/C=C/C(=O)OC [DMF, dimethylfumarate]
